Data reported in article PMC5791972 (PLoS ONE, 2018).
Read-outs that look alike come from different tables or passages of the source.

Columns and labels:
[1] = Pharmacokinetic studies in mice; conditions: male, C57BL/6, mouse, in vivo
GABA transaminase = target: T1, GABA transaminase (Rattus norvegicus, UniProt P50554); assay: enzyme assay; format: biochemical; conditions: 1.0E-06 M
T1 construct: rat brain; from tissue; host or cells: rat brain

Kv4.3 = Kv4.3 (Homo sapiens, UniProt Q9UK17); assay: Ion channel selectivity patch clamp; format: cell-based; conditions: Voltage (+40 mV)
β3 (h) = target: T2, β3 (h) (Homo sapiens, UniProt P13945); format: binding; conditions: 1.0E-06 M
T2 construct: (endogenous); host or cells: SK-N-MC cells
T2 sequence (P13945 whole entry): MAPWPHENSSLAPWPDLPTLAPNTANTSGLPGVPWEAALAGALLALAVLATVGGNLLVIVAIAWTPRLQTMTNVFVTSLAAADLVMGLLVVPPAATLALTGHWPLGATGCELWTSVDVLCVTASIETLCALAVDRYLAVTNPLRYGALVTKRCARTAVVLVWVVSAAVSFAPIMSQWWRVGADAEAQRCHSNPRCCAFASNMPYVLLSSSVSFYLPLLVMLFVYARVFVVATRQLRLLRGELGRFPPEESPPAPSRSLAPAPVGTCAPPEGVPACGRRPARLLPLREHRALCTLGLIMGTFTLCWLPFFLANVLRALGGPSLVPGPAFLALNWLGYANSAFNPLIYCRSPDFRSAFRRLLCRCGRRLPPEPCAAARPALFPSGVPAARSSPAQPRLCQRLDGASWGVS

GABA transporter = GABA transporter (Rattus norvegicus, UniProt P23978)
hERG = hERG (Homo sapiens, UniProt Q12809); assay: Ion channel selectivity patch clamp
[2] = target: glycine (strychnine-insensitive) (Rattus norvegicus, UniProt P35439); format: binding
hTRPC5 = target: T3, hTRPC5 (Homo sapiens, UniProt Q9UL62); assay: Whole-cell manual patch clamp; format: cell-based
T3 construct: The cDNAs for various full-length ion channels were subcloned into pcDNA5/TO; expressed in transfected cells
T3 sequence (Q9UL62 whole entry): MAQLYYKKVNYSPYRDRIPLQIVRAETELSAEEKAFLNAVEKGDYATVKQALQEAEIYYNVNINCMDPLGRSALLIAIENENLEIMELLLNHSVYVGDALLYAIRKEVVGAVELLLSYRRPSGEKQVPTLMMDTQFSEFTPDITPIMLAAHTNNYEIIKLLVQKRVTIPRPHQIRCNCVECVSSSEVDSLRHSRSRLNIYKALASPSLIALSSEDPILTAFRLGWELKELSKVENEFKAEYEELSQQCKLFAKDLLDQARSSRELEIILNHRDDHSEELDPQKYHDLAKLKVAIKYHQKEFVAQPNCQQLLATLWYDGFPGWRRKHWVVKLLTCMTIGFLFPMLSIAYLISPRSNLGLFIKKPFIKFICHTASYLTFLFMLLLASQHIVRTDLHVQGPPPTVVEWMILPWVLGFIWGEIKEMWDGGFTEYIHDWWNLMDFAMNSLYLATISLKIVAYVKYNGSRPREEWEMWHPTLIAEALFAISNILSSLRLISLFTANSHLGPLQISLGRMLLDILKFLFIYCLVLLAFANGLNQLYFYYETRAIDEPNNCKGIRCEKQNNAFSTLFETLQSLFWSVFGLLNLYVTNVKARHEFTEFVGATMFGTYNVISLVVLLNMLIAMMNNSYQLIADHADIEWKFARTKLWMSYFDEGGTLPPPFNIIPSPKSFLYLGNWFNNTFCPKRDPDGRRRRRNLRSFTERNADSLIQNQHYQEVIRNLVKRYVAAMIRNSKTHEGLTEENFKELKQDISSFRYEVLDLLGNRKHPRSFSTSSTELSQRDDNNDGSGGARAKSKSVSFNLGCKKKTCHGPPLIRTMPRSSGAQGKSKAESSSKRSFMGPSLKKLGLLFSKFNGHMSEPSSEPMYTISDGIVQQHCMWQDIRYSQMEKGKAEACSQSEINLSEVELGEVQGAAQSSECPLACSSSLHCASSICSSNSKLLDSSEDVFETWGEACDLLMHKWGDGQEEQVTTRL

kainate = format: binding, rat; conditions: 1.0E-06 M
PDE3A (h) = PDE3A (h) (Homo sapiens, UniProt Q14432); assay: biochemical; conditions: 1.0E-06 M
PDE3A (h), sequence (Q14432 whole entry): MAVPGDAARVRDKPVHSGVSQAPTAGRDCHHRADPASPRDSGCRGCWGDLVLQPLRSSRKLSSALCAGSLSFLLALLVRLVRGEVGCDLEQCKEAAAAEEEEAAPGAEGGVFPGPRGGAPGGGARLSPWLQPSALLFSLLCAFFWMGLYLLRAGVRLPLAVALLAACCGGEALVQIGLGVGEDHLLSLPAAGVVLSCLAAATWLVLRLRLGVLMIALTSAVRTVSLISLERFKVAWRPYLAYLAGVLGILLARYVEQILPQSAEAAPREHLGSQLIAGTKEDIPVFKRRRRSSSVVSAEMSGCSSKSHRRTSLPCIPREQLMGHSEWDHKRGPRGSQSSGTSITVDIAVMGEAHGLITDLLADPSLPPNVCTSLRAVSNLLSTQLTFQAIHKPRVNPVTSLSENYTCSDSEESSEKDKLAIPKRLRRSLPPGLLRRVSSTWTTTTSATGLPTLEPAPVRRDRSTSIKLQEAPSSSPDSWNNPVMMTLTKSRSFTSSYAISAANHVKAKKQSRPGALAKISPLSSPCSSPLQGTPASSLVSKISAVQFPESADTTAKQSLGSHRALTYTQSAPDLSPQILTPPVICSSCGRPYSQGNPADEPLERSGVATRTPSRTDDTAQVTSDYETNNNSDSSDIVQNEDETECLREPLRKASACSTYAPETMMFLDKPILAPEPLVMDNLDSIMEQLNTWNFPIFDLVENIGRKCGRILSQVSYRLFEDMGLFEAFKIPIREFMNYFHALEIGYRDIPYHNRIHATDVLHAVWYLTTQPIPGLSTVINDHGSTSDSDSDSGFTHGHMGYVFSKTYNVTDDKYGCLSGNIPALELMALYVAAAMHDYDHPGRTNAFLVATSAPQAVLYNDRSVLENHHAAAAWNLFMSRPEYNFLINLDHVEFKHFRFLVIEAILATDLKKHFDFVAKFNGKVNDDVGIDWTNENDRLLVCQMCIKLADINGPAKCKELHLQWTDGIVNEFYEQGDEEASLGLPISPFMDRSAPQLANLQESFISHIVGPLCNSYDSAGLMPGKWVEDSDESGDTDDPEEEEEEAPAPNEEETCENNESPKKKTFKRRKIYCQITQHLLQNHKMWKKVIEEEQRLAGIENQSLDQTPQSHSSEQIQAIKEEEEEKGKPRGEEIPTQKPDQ

UT (h) = target: T4, UT (h) (Homo sapiens, UniProt Q9UKP6); format: binding
T4 construct: host or cells: CHO cells
T4 sequence (Q9UKP6 1-389): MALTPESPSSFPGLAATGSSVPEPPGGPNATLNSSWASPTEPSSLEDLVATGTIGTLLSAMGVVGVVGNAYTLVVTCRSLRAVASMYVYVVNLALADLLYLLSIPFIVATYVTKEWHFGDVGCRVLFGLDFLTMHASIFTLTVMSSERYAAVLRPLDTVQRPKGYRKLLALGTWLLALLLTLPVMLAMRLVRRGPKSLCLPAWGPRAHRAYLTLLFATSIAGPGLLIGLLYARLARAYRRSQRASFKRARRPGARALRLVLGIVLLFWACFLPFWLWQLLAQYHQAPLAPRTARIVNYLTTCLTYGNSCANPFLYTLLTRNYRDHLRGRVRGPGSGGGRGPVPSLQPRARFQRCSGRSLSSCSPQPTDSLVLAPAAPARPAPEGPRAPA

ETB (h) = target: T5, ETB (h) (Homo sapiens, UniProt P24530); format: binding
T5 construct: host or cells: CHO cells
T5 sequence (P24530 27-442): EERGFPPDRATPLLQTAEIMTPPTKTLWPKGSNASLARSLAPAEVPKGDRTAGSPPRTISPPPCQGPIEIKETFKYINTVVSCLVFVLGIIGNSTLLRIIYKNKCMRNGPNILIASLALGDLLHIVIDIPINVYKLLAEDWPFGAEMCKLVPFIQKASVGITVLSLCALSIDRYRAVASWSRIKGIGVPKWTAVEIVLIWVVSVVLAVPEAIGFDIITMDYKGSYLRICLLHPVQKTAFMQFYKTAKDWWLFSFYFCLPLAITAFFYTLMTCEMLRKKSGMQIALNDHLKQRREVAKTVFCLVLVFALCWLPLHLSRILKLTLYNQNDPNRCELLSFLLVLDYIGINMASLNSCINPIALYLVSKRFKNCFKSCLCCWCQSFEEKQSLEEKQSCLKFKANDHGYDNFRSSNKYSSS

H2 (h) = target: T6, H2 (h) (Homo sapiens, UniProt P25021); format: binding; conditions: 1.0E-06 M
T6 construct: host or cells: CHO cells
T6 sequence (P25021 whole entry): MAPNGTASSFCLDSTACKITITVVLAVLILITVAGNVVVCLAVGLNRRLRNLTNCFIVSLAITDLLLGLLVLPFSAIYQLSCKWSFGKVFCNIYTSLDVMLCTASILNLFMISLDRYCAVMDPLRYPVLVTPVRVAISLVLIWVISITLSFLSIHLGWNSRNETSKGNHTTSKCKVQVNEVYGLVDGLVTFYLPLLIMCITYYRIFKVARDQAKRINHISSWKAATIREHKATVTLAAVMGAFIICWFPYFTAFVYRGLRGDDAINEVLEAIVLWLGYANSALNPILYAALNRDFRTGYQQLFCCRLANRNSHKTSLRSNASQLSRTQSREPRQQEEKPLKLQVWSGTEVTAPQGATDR

SKCa channel = format: binding, rat; conditions: 1.0E-06 M
H3 (h) = target: T7, H3 (h) (Homo sapiens, UniProt Q9Y5N1); format: binding
T7 construct: host or cells: CHO cells
T7 sequence (Q9Y5N1 whole entry): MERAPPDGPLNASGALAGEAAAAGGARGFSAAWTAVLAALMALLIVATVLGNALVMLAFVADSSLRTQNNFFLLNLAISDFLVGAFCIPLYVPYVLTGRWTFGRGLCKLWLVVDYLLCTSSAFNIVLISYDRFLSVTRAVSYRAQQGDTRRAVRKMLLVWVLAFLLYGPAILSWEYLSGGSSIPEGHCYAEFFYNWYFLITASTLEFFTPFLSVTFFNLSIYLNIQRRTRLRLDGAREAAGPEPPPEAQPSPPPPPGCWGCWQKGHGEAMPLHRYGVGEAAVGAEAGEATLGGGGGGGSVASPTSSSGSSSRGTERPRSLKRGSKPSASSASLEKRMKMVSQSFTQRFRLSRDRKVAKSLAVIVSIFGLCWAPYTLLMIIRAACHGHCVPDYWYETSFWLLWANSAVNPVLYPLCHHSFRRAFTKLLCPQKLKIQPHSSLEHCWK

PCP = format: binding, rat; conditions: 1.0E-06 M
NMDA = format: binding, rat; conditions: 1.0E-06 M
mTRPC5 = target: T8, mTRPC5 (Mus musculus, UniProt Q9QX29); assay: Whole-cell manual patch clamp; format: cell-based; conditions: La3+ (80 μM)
T8 construct: The cDNAs for various full-length ion channels were subcloned into pcDNA5/TO; expressed in transfected cells

5-HT4e (h) = 5-HT4e (h) (Homo sapiens, UniProt Q13639); assay: biochemical
5-HT4e (h), sequence (Q13639 1-378 isoform Q13639-5): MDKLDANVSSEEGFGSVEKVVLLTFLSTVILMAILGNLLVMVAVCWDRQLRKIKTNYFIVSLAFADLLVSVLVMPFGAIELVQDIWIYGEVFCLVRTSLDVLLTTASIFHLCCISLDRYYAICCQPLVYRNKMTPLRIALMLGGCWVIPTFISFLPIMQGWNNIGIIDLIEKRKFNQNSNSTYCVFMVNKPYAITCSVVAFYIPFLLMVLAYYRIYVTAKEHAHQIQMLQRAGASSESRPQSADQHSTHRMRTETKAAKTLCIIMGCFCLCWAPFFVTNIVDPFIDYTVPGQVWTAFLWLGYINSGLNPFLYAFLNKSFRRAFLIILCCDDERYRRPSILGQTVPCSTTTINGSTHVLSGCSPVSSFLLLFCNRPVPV

rTRPC5 = rTRPC5 (Rattus norvegicus, UniProt Q8VD38); assay: Whole-cell manual patch clamp; format: cell-based
β1 (h) = target: T9, β1 (h) (Homo sapiens, UniProt P08588); format: binding; conditions: 1.0E-06 M
T9 construct: host or cells: HEK-293 cells
T9 sequence (P08588 whole entry): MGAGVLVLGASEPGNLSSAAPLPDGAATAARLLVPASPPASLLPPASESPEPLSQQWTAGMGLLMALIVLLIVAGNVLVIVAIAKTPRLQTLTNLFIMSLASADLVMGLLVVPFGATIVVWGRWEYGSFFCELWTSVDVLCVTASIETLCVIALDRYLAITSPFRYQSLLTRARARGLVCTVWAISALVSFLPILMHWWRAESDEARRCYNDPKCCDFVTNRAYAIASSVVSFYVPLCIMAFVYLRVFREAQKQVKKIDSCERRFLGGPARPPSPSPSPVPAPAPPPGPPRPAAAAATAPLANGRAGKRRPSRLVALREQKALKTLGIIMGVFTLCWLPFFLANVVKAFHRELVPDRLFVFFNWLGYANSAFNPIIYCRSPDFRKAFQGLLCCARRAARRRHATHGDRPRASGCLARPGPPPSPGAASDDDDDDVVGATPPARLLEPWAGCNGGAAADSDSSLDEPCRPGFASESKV

[3] = 1.0E-06 M, read-out: % Inhibition 2nd
[4] = 1.0E-06 M, read-out: % Inhibition Mean

With `Cn1c(=O)n(CCCO)c(=O)c2c1nc(Oc1cccc(Cl)c1)n2Cc1ccc(Cl)cc1` [HC-070] the half-life ([1]; iv, 1 mg/kg) was 3.5 h, the half-life ([1]; po, 10 mg/kg) was 3.3 h and the inhibition at 1 µM (GABA transaminase; read-out: % Inhibition 1st) was -33.1%. It also gave an inhibition at 1 µM (GABA transaminase; read-out: % Inhibition Mean) of -34.6% and an IC50 (Kv4.3) of over 1900 nM.
In the case of `Cn1c(=O)n(CCCO)c(=O)c2c1nc(Oc1cccc(OC(F)(F)F)c1)n2Cc1ccc(Cl)cc1` [HC-608], the inhibition at 1 µM (β3 (h); read-out: % Inhibition 1st) is reported as 0.9%, the inhibition at 1 µM (β3 (h); read-out: % Inhibition 2nd) is reported as -6.7% and the inhibition at 1 µM (β3 (h); read-out: % Inhibition Mean) is reported as -2.9%. For the same compound, the “% Inhibition 2nd” value (GABA transporter) was -18.4%, the “% Inhibition Mean” value (GABA transporter) was -15.7% and the IC50 (hERG) was 1150 ± 130 nM. It also gave an inhibition at 1 µM ([2]; read-out: % Inhibition 1st) of 1.7%, an inhibition at 1 µM ([2]; read-out: % Inhibition 2nd) of 3.1% and an inhibition at 1 µM ([2]; read-out: % Inhibition Mean) of 2.4%. For the same compound, the IC50 (hTRPC5; 20 μM carbachol/M1R) was about 0.67 nM, the IC50 (hTRPC5; La3+ (80 μM)) was about 0.17 nM and the “% Inhibition 1st” value (kainate) was 5.9%. For the same compound, the “% Inhibition 2nd” value (kainate) was 5.3%, the “% Inhibition Mean” value (kainate) was 5.6% and the inhibition at 1 µM (PDE3A (h); read-out: % Inhibition 1st) was 3.1%. The inhibition at 1 µM (PDE3A (h); read-out: % Inhibition 2nd) was 0.2%, the inhibition at 1 µM (PDE3A (h); read-out: % Inhibition Mean) was 1.7% and the inhibition at 1 µM (UT (h); [3]) was 7%. The inhibition at 1 µM (UT (h); [4]) was 9.3%, the inhibition at 1 µM (UT (h); read-out: % Inhibition 1st) was 11.5% and the inhibition at 1 µM (ETB (h); [3]) was -0.1%. For the same compound, the inhibition at 1 µM (ETB (h); [4]) was 12.7%, the inhibition at 1 µM (ETB (h); read-out: % Inhibition 1st) was 25.5% and the inhibition at 1 µM (H2 (h); read-out: % Inhibition 1st) was 1.1%. For the same compound, the inhibition at 1 µM (H2 (h); read-out: % Inhibition 2nd) was 7.7%, the inhibition at 1 µM (H2 (h); read-out: % Inhibition Mean) was 4.4% and the “% Inhibition 1st” value (SKCa channel) was -2.5%. For the same compound, the “% Inhibition 2nd” value (SKCa channel) was -4.7%, the “% Inhibition Mean” value (SKCa channel) was -3.6% and the inhibition at 1 µM (H3 (h); [3]) was -0.8%. For the same compound, the inhibition at 1 µM (H3 (h); [4]) was -13.4%, the inhibition at 1 µM (H3 (h); read-out: % Inhibition 1st) was -25.9% and the “% Inhibition 1st” value (PCP) was -9%. The “% Inhibition 2nd” value (PCP) was -0.1%, the “% Inhibition Mean” value (PCP) was -4.6% and the “% Inhibition 1st” value (NMDA) was 19%. The “% Inhibition 2nd” value (NMDA) was 3.2%, the “% Inhibition Mean” value (NMDA) was 11.1% and the IC50 (mTRPC5) was about 0.62 nM. The inhibition at 1 µM (5-HT4e (h); read-out: % Inhibition 1st) was -3.7%, the inhibition at 1 µM (5-HT4e (h); read-out: % Inhibition 2nd) was 10.6% and the inhibition at 1 µM (5-HT4e (h); read-out: % Inhibition Mean) was 3.4%. It also gave an IC50 (rTRPC5) of about 0.41 nM, an inhibition at 1 µM (β1 (h); read-out: % Inhibition 1st) of -14.5% and an inhibition at 1 µM (β1 (h); read-out: % Inhibition 2nd) of -1.8%. For the same compound, the inhibition at 1 µM (β1 (h); read-out: % Inhibition Mean) was -8.1%.
